# According to ChEMBL document CHEMBL1201862, “PubChem BioAssay data set” (2004):
# Active and inactive are the calls of the source.
# Experiments:
# [1] = molecular target: DNA dC->dU-editing enzyme APOBEC-3G (Homo sapiens, UniProt Q9HC16); assay type: functional;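 also: Dose-response counterscreen measuring inhibition of APOBEC3G DNA deaminase activity, run while confirming APOBEC3A inhibitors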
# [2] = molecular target: DNA dC->dU-editing enzyme APOBEC-3A (Homo sapiens, UniProt P31941); assay: Dose Response confirmation of small molecule APOBEC3A DNA Deaminase Inhibitors via a fluorescence-based single-stranded DNA deaminase assay. [Related pubchem assays (depositor defined):AID493011, AID493024]; assay type: functional
# DNA dC->dU-editing enzyme APOBEC-3A, sequence (P31941 whole entry): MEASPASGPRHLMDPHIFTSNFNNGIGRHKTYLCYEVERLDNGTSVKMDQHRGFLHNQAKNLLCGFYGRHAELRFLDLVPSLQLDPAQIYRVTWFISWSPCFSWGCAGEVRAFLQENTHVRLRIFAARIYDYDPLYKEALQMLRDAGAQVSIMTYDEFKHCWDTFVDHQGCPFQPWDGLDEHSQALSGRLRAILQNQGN
# [3] = Trypanosoma cruzi growth suppression in host cells – NIH3T3 host cells, beta-gal luminescence, confirmation (AID 2044); assay type: functional, cell-based;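 also: intracellular parasites grown in NIH/3T3 mouse fibroblasts as host cells; luminescent beta-galactosidase reporter signal from transgenic T. cruzi replicating inside host cells; inhibitors lower the luminescence signal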
# [4] = NIH3T3 cell viability loss – ATP luminescence, mouse fibroblasts, counter-screen, dose response (AID 2010); assay type: functional, cell-based;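 also: cells exposed to compound for about 90 hours before reading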
# INS1 = assay: INS-1E survival protection against cytokine death – cell-based, luminescence, retest, dose response (AID 449756); assay type: functional; conditions: Rattus norvegicus;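 also: cell death triggered by IL-1 beta plus TNF-alpha plus IFN-gamma mixture; protective hits raise ATP signal compared with cytokine alone wells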
# HEK293 = assay: cells; conditions: Homo sapiens;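 also: cells exposed to compound for 14 hours overnight before viability readout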
# Tumor necrosis factor = Tumor necrosis factor (Homo sapiens, UniProt P01375); assay: analog potency on TNFa NF-kB signaling – cell-based, revised, SAR follow-up (AID 2337); assay type: functional
# Tumor necrosis factor, sequence (P01375 whole entry): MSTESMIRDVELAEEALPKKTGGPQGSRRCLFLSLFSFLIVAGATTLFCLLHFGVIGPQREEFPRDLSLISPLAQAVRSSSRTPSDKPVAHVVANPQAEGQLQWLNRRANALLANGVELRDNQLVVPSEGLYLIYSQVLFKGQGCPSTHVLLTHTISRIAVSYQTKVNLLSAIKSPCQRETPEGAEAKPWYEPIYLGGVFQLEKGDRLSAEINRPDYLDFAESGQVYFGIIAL
# [5] = HEK-293T viability loss after treatment – luminescence, T-cell screen hits, cytotoxicity control for TCR NF-kB inhibitor project, dose response (AID 489026); assay type: functional, cell-based;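 also: cells exposed to compound about 14 hours before the viability readout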
# [6] = molecular target: T1, Nucleotide-binding oligomerization domain-containing protein 1 (Homo sapiens, UniProt Q9Y239); assay: blockers of NOD1 pathway activity – revised, SAR follow-up (AID 2333); assay type: functional
# T1 sequence (Q9Y239 whole entry): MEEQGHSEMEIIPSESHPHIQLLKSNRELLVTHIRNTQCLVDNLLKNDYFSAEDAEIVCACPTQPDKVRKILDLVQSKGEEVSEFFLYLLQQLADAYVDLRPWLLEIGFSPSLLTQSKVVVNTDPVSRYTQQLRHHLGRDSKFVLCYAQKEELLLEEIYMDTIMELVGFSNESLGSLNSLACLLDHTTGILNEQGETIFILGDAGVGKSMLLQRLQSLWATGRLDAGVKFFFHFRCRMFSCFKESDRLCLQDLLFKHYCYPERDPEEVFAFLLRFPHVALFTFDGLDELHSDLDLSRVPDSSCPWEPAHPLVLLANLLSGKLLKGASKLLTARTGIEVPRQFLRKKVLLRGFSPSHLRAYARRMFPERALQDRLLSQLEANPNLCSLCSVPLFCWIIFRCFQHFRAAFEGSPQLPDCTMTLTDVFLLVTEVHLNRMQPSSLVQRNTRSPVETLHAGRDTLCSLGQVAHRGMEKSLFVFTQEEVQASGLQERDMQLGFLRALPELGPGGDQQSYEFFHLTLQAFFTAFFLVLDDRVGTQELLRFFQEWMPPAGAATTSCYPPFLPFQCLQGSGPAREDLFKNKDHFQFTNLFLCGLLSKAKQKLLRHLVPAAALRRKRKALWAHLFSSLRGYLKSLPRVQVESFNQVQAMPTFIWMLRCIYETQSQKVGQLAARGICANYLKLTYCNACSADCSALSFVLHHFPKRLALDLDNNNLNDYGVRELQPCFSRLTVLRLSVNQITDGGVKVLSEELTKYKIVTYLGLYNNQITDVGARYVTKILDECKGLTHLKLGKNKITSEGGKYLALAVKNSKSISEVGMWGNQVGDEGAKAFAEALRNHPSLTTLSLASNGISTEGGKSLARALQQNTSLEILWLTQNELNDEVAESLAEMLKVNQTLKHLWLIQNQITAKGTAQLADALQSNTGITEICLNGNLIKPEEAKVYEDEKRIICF
# [7] = microbe, parasite or virus in culture; assay type: functional; conditions: Mycobacterium tuberculosis
# Protein skinhead-1 = molecular target: T2, Protein skinhead-1 (Caenorhabditis elegans, UniProt P34707); assay type: functional
# T2 sequence (P34707 whole entry): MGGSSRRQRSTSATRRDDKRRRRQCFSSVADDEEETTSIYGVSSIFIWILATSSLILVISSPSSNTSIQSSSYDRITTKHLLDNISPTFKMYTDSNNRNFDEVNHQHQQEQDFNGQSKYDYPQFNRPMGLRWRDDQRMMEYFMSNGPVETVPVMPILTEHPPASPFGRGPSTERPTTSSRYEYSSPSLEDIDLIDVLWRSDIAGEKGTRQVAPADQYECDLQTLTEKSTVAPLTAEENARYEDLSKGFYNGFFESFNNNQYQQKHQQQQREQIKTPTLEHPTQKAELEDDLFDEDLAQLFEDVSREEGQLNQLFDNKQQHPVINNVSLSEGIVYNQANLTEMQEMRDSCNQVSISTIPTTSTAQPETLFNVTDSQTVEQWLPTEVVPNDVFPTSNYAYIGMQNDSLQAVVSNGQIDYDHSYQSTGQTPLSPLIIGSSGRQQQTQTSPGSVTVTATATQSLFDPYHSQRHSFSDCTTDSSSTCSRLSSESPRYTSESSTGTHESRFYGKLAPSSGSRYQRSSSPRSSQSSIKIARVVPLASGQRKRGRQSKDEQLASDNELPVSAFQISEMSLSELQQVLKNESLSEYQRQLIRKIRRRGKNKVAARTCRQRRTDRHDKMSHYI
# Beta-galactosidase = Beta-galactosidase (Escherichia coli, UniProt Q8VNN2); assay: Dose response counterscreen for EBI2 assay utilizing the enzyme, b-galactosidase.; assay type: functional
# Beta-galactosidase, sequence (Q8VNN2 whole entry): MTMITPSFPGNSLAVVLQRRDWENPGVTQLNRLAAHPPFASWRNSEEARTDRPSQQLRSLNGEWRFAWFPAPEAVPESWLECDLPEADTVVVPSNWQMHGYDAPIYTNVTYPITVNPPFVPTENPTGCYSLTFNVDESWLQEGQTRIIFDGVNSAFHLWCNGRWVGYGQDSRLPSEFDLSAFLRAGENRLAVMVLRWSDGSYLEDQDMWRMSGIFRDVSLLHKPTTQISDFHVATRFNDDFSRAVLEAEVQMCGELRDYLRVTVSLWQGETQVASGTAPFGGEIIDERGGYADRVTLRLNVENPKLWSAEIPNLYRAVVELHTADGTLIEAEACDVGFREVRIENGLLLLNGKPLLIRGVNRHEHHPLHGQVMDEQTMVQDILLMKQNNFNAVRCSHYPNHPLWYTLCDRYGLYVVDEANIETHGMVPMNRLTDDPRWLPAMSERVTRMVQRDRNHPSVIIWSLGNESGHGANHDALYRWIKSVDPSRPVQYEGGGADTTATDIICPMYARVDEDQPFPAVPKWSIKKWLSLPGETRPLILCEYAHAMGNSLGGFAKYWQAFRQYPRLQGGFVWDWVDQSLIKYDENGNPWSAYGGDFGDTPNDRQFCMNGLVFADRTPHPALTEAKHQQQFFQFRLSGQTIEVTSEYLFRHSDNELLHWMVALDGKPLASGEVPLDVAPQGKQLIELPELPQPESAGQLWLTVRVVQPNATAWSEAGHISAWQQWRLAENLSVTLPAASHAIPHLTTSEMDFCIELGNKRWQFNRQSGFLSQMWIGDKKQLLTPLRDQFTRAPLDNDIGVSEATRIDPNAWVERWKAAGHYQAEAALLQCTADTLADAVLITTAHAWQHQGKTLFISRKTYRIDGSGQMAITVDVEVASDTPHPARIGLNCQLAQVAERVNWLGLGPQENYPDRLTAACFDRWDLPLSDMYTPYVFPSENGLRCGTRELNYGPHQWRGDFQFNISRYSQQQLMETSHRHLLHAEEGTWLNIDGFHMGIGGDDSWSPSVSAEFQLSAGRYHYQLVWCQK
# [8] = molecular target: T3, DNA repair protein RAD52 homolog (Homo sapiens, UniProt P43351); assay type: functional, biochemical
# T3 sequence (P43351 whole entry): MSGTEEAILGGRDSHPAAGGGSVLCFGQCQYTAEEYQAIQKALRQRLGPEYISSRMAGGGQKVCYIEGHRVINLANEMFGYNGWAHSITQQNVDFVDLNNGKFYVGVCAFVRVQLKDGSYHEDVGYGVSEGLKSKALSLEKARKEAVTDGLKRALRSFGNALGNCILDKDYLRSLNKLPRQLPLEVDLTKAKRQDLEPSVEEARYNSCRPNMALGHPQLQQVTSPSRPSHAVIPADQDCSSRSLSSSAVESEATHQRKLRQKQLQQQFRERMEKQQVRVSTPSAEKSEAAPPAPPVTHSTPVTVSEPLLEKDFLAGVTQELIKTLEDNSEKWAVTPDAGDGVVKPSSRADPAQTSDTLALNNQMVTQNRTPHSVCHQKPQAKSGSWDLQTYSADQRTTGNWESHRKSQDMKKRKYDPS
# [9] = molecular target: T4, Corticotropin-releasing factor receptor 2/Corticotropin-releasing factor-binding protein (Homo sapiens, UniProt P24387+Q13324); assay: activators of CRF receptor 2 with binding protein – uHTS hits, confirmation (AID 602473); assay type: functional; conditions: read-out: EC50_Mean
# T4 sequence (Q13324 whole entry): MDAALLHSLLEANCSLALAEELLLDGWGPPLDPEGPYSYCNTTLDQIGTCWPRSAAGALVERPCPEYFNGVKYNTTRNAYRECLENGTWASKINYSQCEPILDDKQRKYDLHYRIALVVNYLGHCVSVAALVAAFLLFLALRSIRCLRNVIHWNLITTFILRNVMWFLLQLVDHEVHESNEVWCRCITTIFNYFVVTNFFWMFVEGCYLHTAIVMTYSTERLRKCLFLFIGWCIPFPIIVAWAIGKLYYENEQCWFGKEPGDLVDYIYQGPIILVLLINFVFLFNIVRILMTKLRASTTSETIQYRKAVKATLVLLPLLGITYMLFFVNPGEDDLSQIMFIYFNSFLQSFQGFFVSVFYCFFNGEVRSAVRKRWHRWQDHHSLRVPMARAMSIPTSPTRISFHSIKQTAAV
# T4 sequence (P24387 whole entry): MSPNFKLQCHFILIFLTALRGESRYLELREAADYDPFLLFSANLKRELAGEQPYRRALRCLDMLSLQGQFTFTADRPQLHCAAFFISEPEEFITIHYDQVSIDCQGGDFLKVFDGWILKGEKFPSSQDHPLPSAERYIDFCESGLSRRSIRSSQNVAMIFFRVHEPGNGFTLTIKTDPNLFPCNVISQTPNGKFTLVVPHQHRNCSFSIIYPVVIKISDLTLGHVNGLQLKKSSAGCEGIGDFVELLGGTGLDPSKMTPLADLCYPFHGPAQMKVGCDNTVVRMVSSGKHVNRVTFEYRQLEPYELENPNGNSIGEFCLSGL
# [10] = molecular target: T4, Corticotropin-releasing factor receptor 2/Corticotropin-releasing factor-binding protein; assay: Dose Response confirmation of uHTS hits for small molecule antagonists of the CRF-binding protein and CRF-R2 receptor complex.; assay type: functional; conditions: read-out: IC50_Mean
# [11] = HIV-1 AD8 envelope cell-cell fusion blockers – cherry-pick, dose response (AID 652062); assay type: functional, cell-based;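 also: luciferase signal from cell-cell fusion driven by HIV-1 clade B AD8 Env; potency is for inhibitors of fusion seen as a drop in luminescence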
# Streptokinase A = molecular target: T5, Streptokinase A (Streptococcus pyogenes serotype M1, UniProt P10520); assay: viability-normalized secreted streptokinase activity reduction – plasminogen activation absorbance, OD405, dose response (AID 1914); assay type: functional, Streptococcus pyogenes M1 GAS;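 also: secreted streptokinase activity via plasminogen activation per viability signal from cell pellet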
# T5 sequence (P10520 whole entry): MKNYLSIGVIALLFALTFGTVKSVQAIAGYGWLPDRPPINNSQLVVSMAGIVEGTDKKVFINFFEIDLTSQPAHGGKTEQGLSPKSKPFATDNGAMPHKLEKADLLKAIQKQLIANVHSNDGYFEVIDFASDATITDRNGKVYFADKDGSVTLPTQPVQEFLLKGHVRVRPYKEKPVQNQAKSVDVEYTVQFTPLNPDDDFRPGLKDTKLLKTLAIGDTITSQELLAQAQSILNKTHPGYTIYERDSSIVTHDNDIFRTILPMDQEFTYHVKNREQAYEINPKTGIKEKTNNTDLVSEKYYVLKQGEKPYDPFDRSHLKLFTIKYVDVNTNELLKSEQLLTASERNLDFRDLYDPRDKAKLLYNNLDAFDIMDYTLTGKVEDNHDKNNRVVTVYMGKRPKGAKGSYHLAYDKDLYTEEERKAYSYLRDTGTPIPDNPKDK
# [12] = blockers of HIV-1 ZM109 envelope-driven cell-cell fusion – HeLa effector, CEM target cells, luciferase, cherry-pick, dose response (AID 652058); assay type: functional, cell-based;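 also: luciferase signal from HIV-1 Env mediated cell-cell fusion of effector and target cells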
# Streptococcus = assay: GAS UMAA2166 growth inhibition – luminescence, BacTiterGlo, counter-screen for streptokinase expression inhibitor project, dose response (AID 1915); assay type: functional, organism-based;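 also: potency for reduction of bacterial viability or growth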
# [13] = off-target signal loss in HeLa-CEM21 co-culture – HeLa F-luc CTL cells, cherry-picked, counter-screen for HIV-1 Env fusion inhibitor project, dose response (AID 652040); assay type: functional, cell-based;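 also: potency for signal decrease marking cytotoxic or nonspecific inhibition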
# [14] = system: Streptococcus sp. 'group A'; assay: Streptococcus pyogenes SK(-)GAS viability under kanamycin – luminescence, BacTiterGlo, confirmation, counter-screen for streptokinase expression inhibitor project, dose response (AID 1900); assay type: functional, organism-based
# [15] = viability loss in CEM21 cells – cell-based, CellTiter-Glo luminescence, cherry-picked, cytotoxicity control for viral fusion inhibitor project, dose response (AID 652042); assay type: functional;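 also: potency for signal decrease meaning cytotoxicity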
# [16] = blockers of HIV-1 envelope-mediated cell-cell fusion – cherry-pick, dose response (AID 652057); assay type: functional, cell-based
# DNA dC->dU-editing enzyme APOBEC-3G, sequence (Q9HC16 whole entry): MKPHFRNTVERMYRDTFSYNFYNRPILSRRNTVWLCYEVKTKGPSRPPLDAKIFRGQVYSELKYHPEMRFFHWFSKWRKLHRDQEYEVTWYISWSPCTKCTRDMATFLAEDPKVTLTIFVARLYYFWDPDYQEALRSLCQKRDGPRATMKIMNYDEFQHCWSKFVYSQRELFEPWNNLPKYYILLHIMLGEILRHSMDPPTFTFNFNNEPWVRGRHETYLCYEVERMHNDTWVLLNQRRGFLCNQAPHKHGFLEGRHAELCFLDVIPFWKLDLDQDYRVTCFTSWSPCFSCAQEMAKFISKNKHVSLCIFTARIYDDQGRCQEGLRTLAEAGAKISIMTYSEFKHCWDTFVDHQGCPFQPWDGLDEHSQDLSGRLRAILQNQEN
structure (smiles),measurement,setting,value
COc1ccc2[nH]c(=O)c(CN(C(=O)c3ccco3)C(C)C)cc2c1,IC50,[1],6.32 µM (active)
same,IC50,[2],6.26 µM (active)
CC1(C)CC(N2CCN(c3ccccc3)CC2)=CC(=[N+]2CCCC2)C1,IC50,[1],2.24 µM (active)
same,IC50,[2],2.15 µM (active)
same,EC50,[3],0.263 µM (active)
same,EC50,[4],> 60 µM (not active)
same,AC50,INS1,1.81 µM (active)
CC(=O)c1ccc(N2CCN(S(=O)(=O)c3ccc4c(c3)CC(C)N4C(=O)C3CC3)CC2)cc1 (stereo unspecified),IC50,HEK293,> 20 µM (inactive)
same,IC50,Tumor necrosis factor,3.18 µM (active)
same,IC50,[5],> 80 µM (inactive)
same,IC50,[6],8.77 µM (active)
CCOC(=O)c1cnc(Nc2nc3ccccc3o2)nc1CSC(=S)N(CC)CC,CC50,[7],28 µM (active)
same,EC50,[3],0.17 µM (active)
same,EC50,[4],> 60 µM (not active)
Cc1ccc(/C=C2/SC(Nc3ccc(F)cc3)=NC2=O)s1,IC50,[1],7.58 µM (active)
same,IC50,Protein skinhead-1,> 100 µM (inactive)
same,IC50,[2],3.22 µM (active)
CCN1C(NCCOC)=N[C@@H](c2ccccc2)[C@H](C(=O)OC)[C@H]1C,IC50,[1],4.28 µM (active)
same,IC50,[2],4.47 µM (active)
Cc1sc2nc(C3CC3)nc(N3CCN(C(=O)c4ccc(Cl)cc4)CC3)c2c1C,IC50,Beta-galactosidase,> 80 µM (inactive)
CC(=O)Nc1ccc(CNc2nc(NCCN(C)C)nc3cc(-c4ccccc4)sc23)cc1,AC50,[8],1.37 µM (active)
Cn1c(C(=O)NCCCN2CCCCCC2)cc2c(=O)n(C)c3ccccc3c21,AC50,[8],12.4 µM (active)
CCOC(=O)N(C)c1c(CC)nc2c(OCc3ccc(Cl)cc3Cl)cccn12,IC50,Beta-galactosidase,121 µM (inactive)
CN(Cc1ccccc1)C(=O)c1ncn(C)c1C(=O)N(C)Cc1ccccc1,IC50,[1],> 100 µM (inactive)
same,IC50,[2],3.15 µM (active)
CCc1ccc(CN(C)C(=O)c2cc(=O)c3ccccc3o2)cc1,IC50,Beta-galactosidase,> 80 µM (inactive)
O=C(COc1ccc2ccccc2c1)N1CCN(C(=O)c2ccc([N+](=O)[O-])cc2)CC1,EC50,[9],> 53 µM (inactive)
same,IC50,Beta-galactosidase,> 80 µM (inactive)
same,IC50,[10],> 47.1 µM (inactive)
CCOC(=O)N1CCN(C(=O)c2cc3c(O)nc4ccccc4c3s2)CC1,IC50,Beta-galactosidase,> 80 µM (inactive)
CN1CC(c2ccc(Cl)c(Cl)c2)[C@@]2(COc3ccccc3C2=O)[C@@]12C(=O)Nc1ccccc12 (stereo partly specified),AC50,[11],31.3 µM (active)
same,EC50,Streptokinase A,1.55 µM (active)
same,AC50,[12],9.1 µM (active)
same,EC50,Streptococcus,> 150 µM (not active)
same,AC50,[13],14.7 µM (active)
same,EC50,[14],2.96 µM (active)
same,AC50,[15],45.7 µM (active)
same,AC50,[16],9.06 µM (active)
CC(C)(C)c1ccc(C2C3=C(CCCC3=O)N=C3C2=C(O)c2ccccc23)cc1 (stereo unspecified),CC50,[7],> 40 µM (active)
CC(=O)Nc1ccc(Nc2cc(C)nc(Nc3ccc(NC(C)=O)cc3)n2)cc1,IC50,[1],16.4 µM (active)
same,IC50,[2],11 µM (active)
